According to patent US7994172B2, “[1H-pyrazolo[3, 4-D]pyrimidin-4-yl]-piperidine or -piperazine compounds as serine-theoronine kinase modulators (P70s6k, Atk1 and Atk2) for the treatment of immunological, inflammatory and proliferative diseases” (Exelixis, Inc., priority 2004, dated 2011):

Assays:
Type in all cases: biochemical
[1] = biological target: T1, human p70S6 kinase (p70S6K, kinase domain residues 1-421, T412E mutation) (Homo sapiens, UniProt P23443, T412E); assay: p70S6 kinase assay, Luciferase-Coupled Chemiluminescent Kinase assay (LCCA); settings: 5 μM ATP, 12 nM p70S6K; read-out: p70S6K inhibition IC50
T1 construct: human p70S6 kinase domainresidues 1-421, containing a T412E mutation; made in house
T1 sequence (P23443 1-421 T412E): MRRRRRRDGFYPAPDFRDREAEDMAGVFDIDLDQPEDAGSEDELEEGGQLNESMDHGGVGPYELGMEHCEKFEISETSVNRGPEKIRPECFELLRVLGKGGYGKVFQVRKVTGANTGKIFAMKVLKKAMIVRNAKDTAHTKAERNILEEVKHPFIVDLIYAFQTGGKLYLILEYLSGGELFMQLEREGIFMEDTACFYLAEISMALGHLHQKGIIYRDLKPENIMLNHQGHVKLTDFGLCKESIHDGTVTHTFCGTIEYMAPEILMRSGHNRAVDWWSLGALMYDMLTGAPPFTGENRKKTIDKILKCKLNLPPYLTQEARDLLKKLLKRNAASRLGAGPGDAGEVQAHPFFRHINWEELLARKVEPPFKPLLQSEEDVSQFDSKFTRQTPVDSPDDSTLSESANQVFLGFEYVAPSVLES
Method in brief: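 Baculovirus-expressed kinase domain (12 nM) reacted 2 h at ambient temperature with 5 μM ATP and 5 μM RRRLSSLRA peptide. Buffer was Tris pH 7.5 with MgCl2, MnCl2, DTT and Triton X-100. Remaining ATP was read by luciferase-luciferin chemiluminescence. IC50 came from 10-point dose-response with a four-parameter Hill fit.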

[2] = biological target: T2, human Akt1 kinase (kinase domain residues R144-A480, activated with PDK1) (Homo sapiens, UniProt P31749); assay: Akt1 kinase assay, Luciferase-Coupled Chemiluminescent Kinase assay (LCCA); settings: 1 μM ATP, 1.3 nM Akt1; read-out: Akt-1 inhibition IC50
T2 construct: made in house
T2 sequence (P31749 144-480): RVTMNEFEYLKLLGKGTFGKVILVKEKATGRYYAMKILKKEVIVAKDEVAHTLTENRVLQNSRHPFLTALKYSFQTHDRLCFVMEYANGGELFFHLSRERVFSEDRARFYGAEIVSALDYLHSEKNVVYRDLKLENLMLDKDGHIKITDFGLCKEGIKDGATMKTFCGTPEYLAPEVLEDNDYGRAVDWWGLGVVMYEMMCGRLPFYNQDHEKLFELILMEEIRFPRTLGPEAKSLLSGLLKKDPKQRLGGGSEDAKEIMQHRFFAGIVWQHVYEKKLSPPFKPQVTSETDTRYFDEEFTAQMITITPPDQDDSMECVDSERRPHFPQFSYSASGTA
Method in brief: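 Baculovirus-expressed PDK1-activated Akt1 kinase domain (R144-A480), 1.3 nM, with 5 μM crosstide and 1 μM ATP in Tris pH 7.5 with MgCl2/MnCl2, 3 h at ambient temperature. Remaining ATP read by luciferase-luciferin chemiluminescence; 10-point IC50 from four-parameter fit.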

[3] = biological target: T3, human Akt2 kinase (kinase domain residues K146-R480) (Homo sapiens, UniProt P31751); assay: Akt2 kinase assay, Luciferase-Coupled Chemiluminescent Kinase assay (LCCA); settings: 2 μM ATP, 10 nM Akt2; read-out: Akt-2 inhibition IC50
T3 construct: human Akt2 kinase domain residues K146-R480; made in house
T3 sequence (P31751 146-480): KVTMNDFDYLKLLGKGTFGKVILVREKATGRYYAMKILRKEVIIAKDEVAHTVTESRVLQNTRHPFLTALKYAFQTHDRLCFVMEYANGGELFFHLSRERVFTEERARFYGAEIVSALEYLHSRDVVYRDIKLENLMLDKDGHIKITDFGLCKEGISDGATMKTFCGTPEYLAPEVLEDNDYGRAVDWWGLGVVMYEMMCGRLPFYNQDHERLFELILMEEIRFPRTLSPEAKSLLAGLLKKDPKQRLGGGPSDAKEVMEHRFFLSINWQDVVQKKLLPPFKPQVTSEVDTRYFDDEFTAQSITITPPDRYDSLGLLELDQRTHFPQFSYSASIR
Description: Kinase activity and compound inhibition are investigated using one or more of the three assay formats described below. The ATP concentrations for each assay are selected to be close to the Michaelis-Menten constant (KM) for each individual kinase. Dose-response experiments are performed at 10 different inhibitor concentrations in a 384-well plate format. The data are fitted to four-parameter equation (2) below; where Y is the observed signal, X is the inhibitor concentration, Min is the background signal in the absence of enzyme (0% enzyme activity), Max is the signal in the absence of inhibitor (100% enzyme activity), IC50 is the inhibitor concentration at 50% enzyme inhibition and H represents the empirical Hill's slope to measure the cooperativity. Typically H is close to unity. Y=Min+(Max−Min)/(1+(X/IC50)^H) Equation (2) p70S6 Kinase Assay
Biochemical activity of Akt2 kinase was assessed using a Luciferase-Coupled Chemiluminescent Kinase assay (LCCA) format. Kinase activity was measured as the percent ATP remaining following the kinase reaction. Remaining ATP was detected by luciferase-luciferin-coupled chemiluminescence. Specifically, the reaction was initiated by mixing test compounds, 2 μM ATP, 5 μM crosstide peptide and 10 nM Akt2 (baculovirus expressed human Akt2 kinase domain residues K146-R480) in a 20 uL assay buffer (20 mM Tris-HCL pH 7.5, 10 mM MgCl2, 0.03% Triton X-100, 1 mM DTT, 3 mM MnCl2). The mixture is incubated at ambient temperature for 2 hours after which 20 μL luciferase-luciferin mix is added and the chemiluminescent signal read using a Wallac Victor2 reader. The luciferase-luciferin mix consists of 50 mM HEPES, pH 7.8, 8.5 μg/mL oxalic acid (pH 7.8), 5 (or 50) mM DTT, 0.4% Triton X-100, 0.25 mg/mL coenzyme A, 63 uM AMP, 28 μg/mL luciferin and 40,000 units/mL luciferase.

`Brc1n[nH]c2ncnc(N3CCN(Cc4ccc(-c5ccccc5)cc4)CC3)c12` [Entry 30, 4-[4-(biphenyl-4-ylmethyl)piperazin-1-yl]-3-bromo-1H-pyrazolo[3,4-d]pyrimidine] was tested, and the IC50 [1] was under 0.05 µM, the IC50 [2] was over 2 µM and the IC50 [3] was over 2 µM.

`C[C@H]1CN(c2ncnc3[nH]nc(Br)c23)CCN1Cc1ccc(Cl)cc1` [Entry 31, 3-bromo-4-{(3S)-4-[(4-chlorophenyl)methyl]-3-methylpiperazin-1-yl}-1H-pyrazolo[3,4-d]pyrimidine] gave an IC50 [1] of under 0.05 µM, an IC50 [2] of 0.5 to 2 µM and an IC50 [3] of over 2 µM.

`COc1ccc(CN2CCN(c3ncnc4[nH]nc(Br)c34)CC2)cc1` [Entry 32, 3-bromo-4-(4-{[4-(methyloxy)phenyl]methyl}piperazin-1-yl)-1H-pyrazolo[3,4-d]pyrimidine] showed an IC50 [1] of under 0.05 µM, an IC50 [2] of 0.5 to 2 µM and an IC50 [3] of over 2 µM.

In the case of `O=C(Nc1cccc(C(F)(F)F)c1)N1CCN(c2ncnc3[nH]nc(Br)c23)CC1` [Entry 33, 4-(3-bromo-1H-pyrazolo[3,4-d]pyrimidin-4-yl)-N-[3-(trifluoromethyl)phenyl]piperazine-1-carboxamide], the IC50 [1] is reported as under 0.05 µM, the IC50 [2] is reported as over 2 µM and the IC50 [3] is reported as over 2 µM.

In the case of `Fc1ccc(CN2CCN(c3ncnc4[nH]nc(Br)c34)CC2)cc1` [Entry 34, 3-bromo-4-{4-[(4-fluorophenyl)methyl]piperazin-1-yl}-1H-pyrazolo[3,4-d]pyrimidine], the IC50 [1] is reported as under 0.05 µM, the IC50 [2] is reported as 0.5 to 2 µM and the IC50 [3] is reported as over 2 µM.

`Brc1n[nH]c2ncnc(N3CCN(Cc4ccc5c(c4)OCCO5)CC3)c12` [Entry 36, 3-bromo-4-[4-(2,3-dihydro-1,4-benzodioxin-6-ylmethyl)piperazin-1-yl]-1H-pyrazolo[3,4-d]pyrimidine] was tested, and the IC50 [1] was under 0.05 µM, the IC50 [2] was over 2 µM and the IC50 [3] was over 2 µM.

`Brc1n[nH]c2ncnc(N3CCN(Cc4ccc5c(c4)OCO5)CC3)c12` [Entry 37, 4-[4-(1,3-benzodioxol-5-ylmethyl)piperazin-1-yl]-3-bromo-1H-pyrazolo[3,4-d]pyrimidine] gave an IC50 [1] of under 0.05 µM, an IC50 [2] of 0.5 to 2 µM and an IC50 [3] of over 2 µM.

Work on `O=C(c1ccc(Cl)cc1)C1CCN(c2ncnc3[nH]nc(Br)c23)CC1` [Entry 38, [1-(3-bromo-1H-pyrazolo[3,4-d]pyrimidin-4-yl)piperidin-4-yl](4-chlorophenyl)methanone] yielded an IC50 [1] of under 0.05 µM, an IC50 [2] of 0.5 to 2 µM and an IC50 [3] of over 2 µM.

Work on `Brc1n[nH]c2ncnc(N3CCN(Cc4ccc(Oc5ccccc5)cc4)CC3)c12` [Entry 39, 3-bromo-4-(4-{[4-(phenyloxy)phenyl]methyl}piperazin-1-yl)-1H-pyrazolo[3,4-d]pyrimidine] yielded an IC50 [1] of under 0.05 µM, an IC50 [2] of over 2 µM and an IC50 [3] of over 2 µM.

With `CN(C)c1ccc(CN2CCN(c3ncnc4[nH]nc(Br)c34)CC2)cc1` [Entry 41, 4-{[4-(3-bromo-1H-pyrazolo[3,4-d]pyrimidin-4-yl)piperazin-1-yl]methyl}-N,N-dimethylaniline] the IC50 [1] was under 0.05 µM, the IC50 [2] was over 2 µM and the IC50 [3] was over 2 µM.

Work on `O=C(/C=C/c1ccccc1)N1CCN(c2ncnc3[nH]nc(Br)c23)CC1` [Entry 43, 3-bromo-4-{4-[(2E)-3-phenylprop-2-enoyl]piperazin-1-yl}-1H-pyrazolo[3,4-d]pyrimidine] yielded an IC50 [1] of under 0.05 µM, an IC50 [2] of over 2 µM and an IC50 [3] of over 2 µM.

For `Brc1ccccc1CN1CCN(c2ncnc3[nH]nc(Br)c23)CC1` [Entry 45, 3-bromo-4-{4-[(2-bromophenyl)methyl]piperazin-1-yl}-1H-pyrazolo[3,4-d]pyrimidine], the IC50 [1] was under 0.05 µM, the IC50 [2] was over 2 µM and the IC50 [3] was over 2 µM.

In the case of `Clc1ccccc1CN1CCN(c2ncnc3[nH]nc(Br)c23)CC1` [Entry 46, 3-bromo-4-{4-[(2-chlorophenyl)methyl]piperazin-1-yl}-1H-pyrazolo[3,4-d]pyrimidine], the IC50 [1] is reported as under 0.05 µM, the IC50 [2] is reported as over 2 µM and the IC50 [3] is reported as over 2 µM.

`Clc1ccc(CN2CCN(c3ncnc4[nH]nc(Br)c34)CC2)c(Cl)c1` [Entry 47, 3-bromo-4-{4-[(2,4-dichlorophenyl)methyl]piperazin-1-yl}-1H-pyrazolo[3,4-d]pyrimidine] gave an IC50 [1] of under 0.05 µM, an IC50 [2] of 0.5 to 2 µM and an IC50 [3] of over 2 µM.
